Assay results: ChEMBL document CHEMBL1127970, “Dual metalloprotease inhibitors. IV. Utilization of thiazepines and thiazines as constrained peptidomimetic surrogates in mercaptoacyl dipeptides” (Bioorg Med Chem Lett, 1994)

Key:
[1] = target: T1, Angiotensin-converting enzyme (Rattus norvegicus, UniProt P47820); experiment: In vitro inhibition of angiotensin converting enzyme isolated from rat lung.; details: read-out: I50
T1 sequence (P47820 whole entry): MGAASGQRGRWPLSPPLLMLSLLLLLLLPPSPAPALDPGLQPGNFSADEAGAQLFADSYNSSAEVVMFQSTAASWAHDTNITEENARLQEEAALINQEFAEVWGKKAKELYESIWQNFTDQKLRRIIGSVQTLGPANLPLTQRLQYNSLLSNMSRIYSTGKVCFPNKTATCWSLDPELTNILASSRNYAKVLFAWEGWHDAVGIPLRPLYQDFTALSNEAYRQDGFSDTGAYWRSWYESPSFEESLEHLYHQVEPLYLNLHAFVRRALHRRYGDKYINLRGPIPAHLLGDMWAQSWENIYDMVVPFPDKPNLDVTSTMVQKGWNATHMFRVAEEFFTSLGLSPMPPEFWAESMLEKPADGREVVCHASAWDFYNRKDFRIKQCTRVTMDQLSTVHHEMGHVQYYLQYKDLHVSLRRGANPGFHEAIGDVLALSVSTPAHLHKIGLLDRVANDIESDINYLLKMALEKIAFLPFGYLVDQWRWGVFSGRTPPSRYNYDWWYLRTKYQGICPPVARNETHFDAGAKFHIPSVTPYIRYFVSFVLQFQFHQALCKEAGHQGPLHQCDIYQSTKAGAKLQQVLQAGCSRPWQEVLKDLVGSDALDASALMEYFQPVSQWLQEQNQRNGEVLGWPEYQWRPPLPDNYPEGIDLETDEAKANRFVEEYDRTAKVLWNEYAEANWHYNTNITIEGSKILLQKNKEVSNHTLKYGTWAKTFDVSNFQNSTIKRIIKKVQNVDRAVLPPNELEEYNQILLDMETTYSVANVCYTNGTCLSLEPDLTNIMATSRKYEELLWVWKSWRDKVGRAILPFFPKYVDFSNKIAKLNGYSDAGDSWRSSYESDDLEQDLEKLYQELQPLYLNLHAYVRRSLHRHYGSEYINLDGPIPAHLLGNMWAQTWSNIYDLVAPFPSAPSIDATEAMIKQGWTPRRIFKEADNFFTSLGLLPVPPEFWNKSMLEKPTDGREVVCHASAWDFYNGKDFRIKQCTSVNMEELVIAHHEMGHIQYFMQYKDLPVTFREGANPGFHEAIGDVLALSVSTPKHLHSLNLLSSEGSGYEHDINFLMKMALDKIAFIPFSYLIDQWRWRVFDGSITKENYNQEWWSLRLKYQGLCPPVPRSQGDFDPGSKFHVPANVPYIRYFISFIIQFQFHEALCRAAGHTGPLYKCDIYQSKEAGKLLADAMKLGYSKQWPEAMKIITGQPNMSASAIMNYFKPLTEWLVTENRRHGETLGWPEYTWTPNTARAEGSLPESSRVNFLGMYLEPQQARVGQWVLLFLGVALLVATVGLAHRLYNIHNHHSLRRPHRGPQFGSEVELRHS

[2] = target: T2, Neprilysin (Rattus norvegicus, UniProt P07861); experiment: In vitro inhibition of Neutral Endopeptidase isolated from rat kidney.; details: read-out: I50
T2 sequence (P07861 whole entry): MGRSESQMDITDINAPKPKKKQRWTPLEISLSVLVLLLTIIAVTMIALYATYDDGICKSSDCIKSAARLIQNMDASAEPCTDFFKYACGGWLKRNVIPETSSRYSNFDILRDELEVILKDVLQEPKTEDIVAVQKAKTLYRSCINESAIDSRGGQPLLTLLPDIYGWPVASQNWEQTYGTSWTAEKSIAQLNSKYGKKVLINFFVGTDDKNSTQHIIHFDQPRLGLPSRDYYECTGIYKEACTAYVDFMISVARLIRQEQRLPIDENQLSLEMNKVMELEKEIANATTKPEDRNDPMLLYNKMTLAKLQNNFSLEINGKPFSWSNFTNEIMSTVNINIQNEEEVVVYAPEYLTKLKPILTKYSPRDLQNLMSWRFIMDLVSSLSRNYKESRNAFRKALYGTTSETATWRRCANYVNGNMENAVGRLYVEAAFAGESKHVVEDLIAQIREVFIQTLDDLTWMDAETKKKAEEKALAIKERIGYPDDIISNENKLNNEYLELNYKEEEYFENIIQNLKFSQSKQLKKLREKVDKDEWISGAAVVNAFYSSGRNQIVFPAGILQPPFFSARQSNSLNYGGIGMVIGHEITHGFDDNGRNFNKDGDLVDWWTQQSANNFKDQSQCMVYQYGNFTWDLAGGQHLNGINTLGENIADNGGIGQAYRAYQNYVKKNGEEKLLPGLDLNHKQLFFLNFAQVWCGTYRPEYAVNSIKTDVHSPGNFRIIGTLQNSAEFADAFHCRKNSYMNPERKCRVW

[3] = tested on: Rattus norvegicus; experiment: Effective dose required to inhibit angiotensin 1(AI) induced pressor response in normotensive rats when administered intravenously; format: functional; details: iv

SMILES | IC50 [1] [nM] | IC50 [2] [nM] | ED50 [3] [µmol/kg]
O=C(O)CN1C[C@H](c2ccccc2)SC[C@H](NC(=O)[C@@H](S)Cc2ccccc2)C1=O | 290 | 2040 | –
O=C(O)CN1C(=O)[C@@H](NC(=O)[C@@H](CS)Cc2ccccc2)CSC[C@H]1c1ccccc1 | 22 | – | –
O=C(O)CN1CCSC[C@H](NC(=O)[C@@H](S)Cc2ccccc2)C1=O | 67 | 244 | 4.4
O=C(O)CN1C(=O)[C@@H](NC(=O)[C@@H](CS)Cc2ccccc2)CS[C@@H]1c1ccccc1 | 167 | 2.5 | –
O=C(O)CN1C(=O)[C@@H](NC(=O)[C@@H](S)Cc2ccccc2)CS[C@H]1c1ccccc1 | 73 | – | –
O=C(O)CN1C(=O)[C@@H](NC(=O)[C@@H](CS)Cc2ccccc2)CS[C@H]1c1ccccc1 | 115 | 2.7 | –
O=C(O)CN1C[C@@H](c2ccccc2)SC[C@H](NC(=O)[C@@H](S)Cc2ccccc2)C1=O | 40 | 99 | < 0.15
O=C(O)CN1C(=O)[C@H](NC(=O)[C@@H](CS)Cc2ccccc2)CS[C@@H]1c1ccccc1 | 123 | 126 | –
O=C(O)CN1C[C@@H](c2ccccc2)SC[C@H](NC(=O)[C@@H](CS)Cc2ccccc2)C1=O | 33 | – | > 1.5
CC1(C)CSC[C@H](NC(=O)[C@@H](S)Cc2ccccc2)C(=O)N1CC(=O)O | 13.8 | – | –
O=C(O)CN1CSCC[C@H](NC(=O)[C@@H](S)Cc2ccccc2)C1=O | 61 | 535 | –
O=C(O)CN1C(=O)[C@@H](NC(=O)[C@@H](CS)Cc2ccccc2)CSc2ccccc21 | 17 | 1 | 3.96

Further compounds by falling IC50 [1], results first:

IC50 [1] [nM] | IC50 [2] [nM] | SMILES | ED50 [3] [µmol/kg]
100 | – | O=C(O)CN1CCSC[C@H](NC(=O)[C@@H](CS)Cc2ccccc2)C1=O | –
29 | – | O=C(O)CN1C(=O)[C@@H](NC(=O)[C@@H](S)Cc2ccccc2)CSC[C@H]1c1ccccc1 | 0.49
25 | – | O=C(O)CN1C(=O)[C@@H](NC(=O)[C@@H](S)Cc2ccccc2)CS[C@@H]1c1ccccc1 | 2.75
20 | – | O=C(O)CN1C(=O)[C@H](NC(=O)[C@@H](S)Cc2ccccc2)CS[C@@H]1c1ccccc1 | 0.21
13 | – | O=C(O)CN1C(=O)[C@@H](NC(=O)[C@@H](S)Cc2ccccc2)CSc2ccccc21 | 0.14
11.7 | – | C[C@@H]1SCC[C@H](NC(=O)[C@@H](S)Cc2ccccc2)C(=O)N1CC(=O)O | –
